Measured values reported in the supplement of paper PMC4862054.

What was measured:
Experiment in all cases: normalised response (% of control), CellTiter-Glo; higher = more viable cells (100 = DMSO, 0 = benzethonium chloride kill control)
Conditions in all cases: incubation time: 72 h
BT-474 = tested on: BT-474
Procedure, shortened: (§1)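 Breast cancer cell lines (20 µl suspension) were seeded into 384-well plates holding compound at 5 concentrations in 10-fold steps over a compound-specific 10,000-fold range, then incubated 72 h. CellTox Green fluorescence (485/520 nm) was read first, then CellTiter-Glo luminescence after 10 min at room temperature. Each plate was normalised to 0.1 % DMSO (100) and a positive kill control (0). Each value is the normalised signal at a single concentration of the series.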

BT-549 = tested on: BT-549
Procedure, shortened: as §1

CAL-120 = tested on: CAL-120
Procedure, shortened: as §1

CAL-148 = tested on: CAL-148
Procedure, shortened: as §1

CAL-51 = tested on: CAL-51
Procedure, shortened: as §1

CAL-85-1 = tested on: CAL-85-1
Procedure, shortened: as §1

DU-4475 = tested on: DU-4475
Procedure, shortened: as §1

HCC1143 = tested on: HCC1143
Procedure, shortened: as §1

HCC1599 = tested on: HCC1599
Procedure, shortened: as §1

HCC1937 = tested on: HCC1937
Procedure, shortened: as §1

HDQ-P1 = tested on: HDQ-P1
Procedure, shortened: as §1

Hs578T = tested on: Hs578T
Procedure, shortened: as §1

MCF-10A = tested on: MCF-10A
Procedure, shortened: as §1

MDA-MB-231 = tested on: MDA-MB-231
Procedure, shortened: as §1

MDA-MB-436 = tested on: MDA-MB-436
Procedure, shortened: as §1

MDA-MB-453 = tested on: MDA-MB-453
Procedure, shortened: as §1

MDA-MB-468 = tested on: MDA-MB-468
Procedure, shortened: as §1

MFM-223 = tested on: MFM-223
Procedure, shortened: as §1

SK-BR-3 = tested on: SK-BR-3
Procedure, shortened: as §1

Structure (SMILES) | normalised response (BT-474) [%] | normalised response (BT-549) [%] | normalised response (CAL-120) [%] | normalised response (CAL-148) [%] | normalised response (CAL-51) [%] | normalised response (CAL-85-1) [%] | normalised response (DU-4475) [%] | normalised response (HCC1143) [%] | normalised response (HCC1599) [%] | normalised response (HCC1937) [%] | normalised response (HDQ-P1) [%] | normalised response (Hs578T) [%] | normalised response (MCF-10A) [%] | normalised response (MDA-MB-231) [%] | normalised response (MDA-MB-436) [%] | normalised response (MDA-MB-453) [%] | normalised response (MDA-MB-468) [%] | normalised response (MFM-223) [%] | normalised response (SK-BR-3) [%]
CN(c1ccccc1CNc1nc(Nc2ccc3c(c2)CC(=O)N3)ncc1C(F)(F)F)S(C)(=O)=O (1 nM) | 95.5 | 100 | 93 | 91.6 | 96.2 | 94.9 | 95.9 | 93 | 98.4 | 99.5 | 101 | 97.8 | 96.3 | 95.4 | 106 | 95.4 | 90.3 | 89.5 | 96
COc1ncc(-c2ccc3nccc(-c4ccnnc4)c3c2)cc1NS(=O)(=O)c1ccc(F)cc1F (1 nM) | 91.6 | 93.5 | 93 | 105 | 111 | 101 | 103 | 101 | 95.3 | 95.3 | 81.3 | 101 | 94.2 | 92.9 | 93.1 | 98.2 | 109 | 109 | 84.6
Nc1nccc(-c2c(-c3ccc(F)cc3)ncn2C2CCCCC2)n1 (1 nM) | 97.9 | 109 | 95.7 | 105 | 119 | 98.8 | 102 | 109 | 104 | 105 | 101 | 104 | 110 | 105 | 100 | 95.5 | 94.1 | 102 | 108
CN(c1ccccc1CNc1nc(Nc2ccc3c(c2)CC(=O)N3)ncc1C(F)(F)F)S(C)(=O)=O (10 nM) | 92.1 | 97 | 94.4 | 101 | 102 | 94.6 | 94.8 | 99.5 | 91.4 | 97.5 | 101 | 92 | 100 | 87.9 | 92 | 96.6 | 84.8 | 91.4 | 111
C[C@@]1(C(=O)Nc2ccc(F)nc2)CCCN1c1nc(Nc2cc(C3CC3)n[nH]2)c2cccn2n1 (10 nM) | 90.7 | 88 | 91.2 | 87.3 | 99.3 | 91.6 | 99.5 | 97.5 | 96.1 | 95.4 | 85.4 | 92.4 | 67.5 | 88.1 | 92.5 | 92.8 | 86.8 | 83.4 | 71.5
Nc1nccc(-c2c(-c3ccc(F)cc3)ncn2C2CCCCC2)n1 (10 nM) | 106 | 90.7 | 102 | 116 | 104 | 106 | 107 | 110 | 86.8 | 100 | 102 | 107 | 111 | 100 | 95.7 | 106 | 96 | 110 | 
COc1c(C)cnc(Cn2cnc3c(Cl)nc(N)nc32)c1C [BIIB021] (10 nM) | 101 | 99.6 | 99 | 94.6 | 116 | 96.9 | 102 | 108 | 109 | 105 | 97.5 | 97.6 | 96.6 | 99.3 | 101 | 102 | 102 | 102 | 
CC(C)C[C@H](NC(=O)[C@H](Cc1ccccc1)NC(=O)c1cnccn1)B(O)O [Bortezomib] (1 nM) | 99.2 | 98.2 | 102 | 102 | 77.6 | 98.8 | 101 | 94.2 | 108 | 98.8 | 101 | 109 | 102 | 104 | 90.8 | 97 | 95 | 103 | 
CS(=O)(=O)OCCCCOS(C)(=O)=O [Busulfan] (100 nM) | 101 | 97.2 | 99.1 | 101 | 121 | 98.1 | 109 | 112 | 94.5 | 97.9 | 99.7 | 105 | 108 | 101 | 97.2 | 109 | 106 | 112 | 97.5
C#Cc1cccc(Nc2ncnc3cc(OC)c(OCCCCCCC(=O)NO)cc23)c1 [CUDC-101] (10 nM) | 98 | 101 | 99.8 | 87.5 | 84.9 | 92.6 | 99 | 99.9 | 93.9 | 104 | 95.8 | 96.4 | 97.5 | 98.1 | 105 | 103 | 101 | 100 | 
COc1cccc2c1C(=O)c1c(O)c3c(c(O)c1C2=O)C[C@@](O)(C(C)=O)C[C@@H]3O[C@H]1C[C@H](N)[C@H](O)[C@H](C)O1 [Daunorubicin] (1 nM) | 106 | 94.2 | 96.9 | 109 | 122 | 96.2 | 107 | 109 | 109 | 99.9 | 104 | 112 | 107 | 105 | 101 | 108 | 105 | 108 | 
CN1CCN(c2ccc3nc(-c4c(N)c5c(F)cccc5[nH]c4=O)[nH]c3c2)CC1 [Dovitinib] (10 nM) | 102 | 91.8 | 95.6 | 94.9 | 77.6 | 91.5 | 97.8 | 102 | 102 | 101 | 96.1 | 97.6 | 98.3 | 98.6 | 98.1 | 88.4 | 97 | 95.1 | 
O=c1[nH]c(=O)n([C@H]2C[C@H](O)[C@@H](CO)O2)cc1F [Floxuridine] (10 nM) | 102 | 100 | 99.5 | 110 | 122 | 104 | 98.1 | 109 | 93.1 | 98.2 | 90.2 | 92.3 | 105 | 105 | 92.5 | 111 | 96.7 | 111 | 
O=c1[nH]cc(F)c(=O)[nH]1 [Fluorouracil] (10 nM) | 103 | 107 | 95.1 | 112 | 104 | 96.1 | 110 | 121 | 99.3 | 106 | 102 | 110 | 111 | 107 | 99.1 | 101 | 105 | 113 | 
C[C@@H]1C=C2C(=O)O[C@@H]3CC[C@H](C1)[C@]23O [Galiellalactone] (50 nM) | 104 | 98.9 | 102 | 111 | 101 | 102 | 105 | 107 | 98.2 | 102 | 104 | 104 | 114 | 104 | 106 | 108 | 106 | 114 | 112
COC1=C2C[C@@H](C)C[C@H](OC)[C@H](O)[C@@H](C)/C=C(\C)[C@H](OC(N)=O)[C@@H](OC)/C=C\C=C(/C)C(=O)NC(=CC1=O)C2=O [Geldanamycin] (10 nM) | 106 | 97.3 | 102 | 113 | 112 | 99.6 | 105 | 101 | 101 | 99.9 | 100 | 108 | 106 | 105 | 104 | 106 | 105 | 105 | 110
CS(=O)(=O)CCNCc1ccc(-c2ccc3ncnc(Nc4ccc(OCc5cccc(F)c5)c(Cl)c4)c3c2)o1 [Lapatinib] (0.1 nM) | 102 | 101 | 96 | 110 | 110 | 106 | 109 | 99.2 | 90.2 | 98.8 | 101 | 101 | 98.4 | 100 | 86.2 | 121 | 112 | 104 | 114
COc1ccc(C2=N[C@@H](c3ccc(Cl)cc3)[C@@H](c3ccc(Cl)cc3)N2C(=O)N2CCNC(=O)C2)c(OC(C)C)c1 [Nutlin-3] (10 nM) | 97.4 | 101 | 98.3 | 102 | 86.3 | 101 | 104 | 106 | 104 | 103 | 100 | 104 | 99.6 | 100 | 99.9 | 100 | 105 | 103 | 
CC(=O)O[C@H]1C(=O)[C@@]2(C)[C@H]([C@H](OC(=O)c3ccccc3)[C@]3(O)C[C@H](OC(=O)[C@H](O)[C@@H](NC(=O)c4ccccc4)c4ccccc4)C(C)=C1C3(C)C)[C@]1(OC(C)=O)CO[C@@H]1C[C@@H]2O [Paclitaxel] (1 nM) | 89.5 | 93.1 | 91.6 | 89.2 | 129 | 99.5 | 92.2 | 90.4 | 97.8 | 94.7 | 89.8 | 88.8 | 81.5 | 88.6 | 91.4 | 92.8 | 96.1 | 89.5 | 
C[C@@H]1CCN(C(=O)CC#N)C[C@@H]1N(C)c1ncnc2[nH]ccc12 [Tofacitinib] (5 nM) | 114 | 97.2 | 95.7 | 111 | 122 | 112 | 110 | 105 | 115 | 96.3 | 103 | 103 | 108 | 103 | 104 | 120 | 104 | 101 | 
FC(F)c1nc2ccccc2n1-c1nc(N2CCOCC2)nc(N2CCOCC2)n1 [ZSTK474] (10 nM) | 98.2 | 95.4 | 96.9 | 99.7 | 75.5 | 92.5 | 101 | 97.6 | 105 | 99.8 | 95 | 101 | 103 | 89.9 | 91.3 | 101 | 100 | 100 | 
